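Grown in 96-well plates, cells were treated for 48 hours with each compound at five concentrations. Insufficient inhibition: endpoint recorded as highest concentration tested. GI50 = concentration required for 50% inhibition of growth. Definition used: TGI = concentration required for complete inhibition of growth.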

Some test systems named below: ACHN renal; CAKI-1 renal; EKVX NSCLC; HCC-2998 colon; HOP-92 NSCLC; LOX IMVI melanoma; OVCAR-4 ovarian; OVCAR-8 ovarian; PC-3 prostate; SR leukemia.
Test in all cases: growth of human tumour cells (NCI), 48 h

In the case of `CC(=O)n1c(-c2ccc(Cl)cc2)nc2c(c1=O)C(c1ccc(Cl)cc1)c1sc3c(Cl)cccc3c1O2` (stereo not given), the GI50 was 1 µM with ACHN renal; 0.488 µM with CAKI-1 renal; 0.926 µM in the assay on EKVX NSCLC; 1.09 µM in the assay on HCC-2998 colon; 1.27 µM in the assay with HOP-92 NSCLC; 0.59 µM in the assay on LOX IMVI melanoma. In addition, the GI50 is 0.696 µM with OVCAR-4 ovarian, 0.626 µM in the assay with OVCAR-8 ovarian, 0.37 µM with PC-3 prostate and 0.436 µM in the assay with SR leukemia. Further, the TGI with ACHN renal came out at 3.91 µM; in the assay on CAKI-1 renal, 3.03 µM; in the assay with EKVX NSCLC, 3.71 µM; in the assay on HCC-2998 colon it was 2.57 µM; in the assay on HOP-92 NSCLC it was 4.61 µM; in the assay with LOX IMVI melanoma, 1.91 µM. Besides, the TGI with OVCAR-4 ovarian is 4.25 µM; with OVCAR-8 ovarian, 3.02 µM; in the assay on PC-3 prostate it was 2.69 µM; in the assay on SR leukemia it was 3.95 µM.
`C[C@H]1CCC/C=C/[C@@H]2C[C@H](N)C[C@H]2[C@H](O)/C=C/C(=O)O1`: the GI50 in the assay on ACHN renal, with CAKI-1 renal, in the assay on EKVX NSCLC, in the assay with HCC-2998 colon, with HOP-92 NSCLC and in the assay with LOX IMVI melanoma was above 100 µM throughout. The GI50 was above 100 µM with OVCAR-4 ovarian, above 100 µM with OVCAR-8 ovarian, above 100 µM in the assay with PC-3 prostate and 74 µM in the assay on SR leukemia. In addition, the TGI with ACHN renal, in the assay on CAKI-1 renal, in the assay with EKVX NSCLC, with HCC-2998 colon, in the assay with HOP-92 NSCLC and with LOX IMVI melanoma was above 100 µM throughout. The TGI in the assay on OVCAR-4 ovarian, with OVCAR-8 ovarian, with PC-3 prostate and with SR leukemia was above 100 µM throughout.
With `C=CC(=O)Nc1cccc(Nc2nc(Nc3ccc(OCCOC)cc3)ncc2F)c1`, the GI50 is 0.454 µM in the assay on ACHN renal; 0.511 µM with CAKI-1 renal; 3.16 µM in the assay with EKVX NSCLC; 3.55 µM in the assay with HCC-2998 colon; 0.928 µM in the assay on HOP-92 NSCLC; 1.12 µM in the assay on LOX IMVI melanoma. The GI50 in the assay with OVCAR-4 ovarian was 0.824 µM; in the assay with OVCAR-8 ovarian, 3.19 µM; with PC-3 prostate, 2.92 µM; in the assay on SR leukemia, 3.41 µM. The TGI is 2.84 µM in the assay on ACHN renal; 2.46 µM with CAKI-1 renal; 15.6 µM in the assay on EKVX NSCLC; 19.5 µM in the assay with HCC-2998 colon; 5.34 µM in the assay with HOP-92 NSCLC; 3.62 µM in the assay on LOX IMVI melanoma. Besides, the TGI with OVCAR-4 ovarian was 17.1 µM; with OVCAR-8 ovarian, 45.1 µM; in the assay on PC-3 prostate it was 26.9 µM; in the assay on SR leukemia it was above 100 µM.
As to `COc1ccc2c(-c3cc4ccccc4o3)cc(=O)oc2c1`, the TGI was above 100 µM with ACHN renal; above 87.4 µM with CAKI-1 renal; above 100 µM in the assay with EKVX NSCLC; above 100 µM in the assay with HCC-2998 colon; 75.3 µM with HOP-92 NSCLC; above 100 µM with LOX IMVI melanoma. For the same molecule, the TGI in the assay on OVCAR-4 ovarian was 71.8 µM; in the assay on OVCAR-8 ovarian it was above 100 µM; with PC-3 prostate, above 100 µM; in the assay with SR leukemia, above 100 µM.
On to `CN(C)CCNC(=O)Nc1c(C#N)[n+]([O-])c2cc(Cl)c(Cl)cc2[n+]1[O-]`, for which the GI50 is 32.9 µM in the assay on ACHN renal; 37.6 µM in the assay on CAKI-1 renal; 36.8 µM in the assay with EKVX NSCLC; 27.4 µM in the assay on HCC-2998 colon; 18.1 µM in the assay with HOP-92 NSCLC; 18.3 µM with LOX IMVI melanoma. Moreover, the GI50 in the assay with OVCAR-4 ovarian is 17.8 µM; in the assay on OVCAR-8 ovarian, 21.4 µM; in the assay on PC-3 prostate it was 18.4 µM; in the assay with SR leukemia, 13.4 µM. The TGI in the assay with ACHN renal was above 100 µM; in the assay on CAKI-1 renal, above 100 µM; in the assay with EKVX NSCLC, above 100 µM; in the assay with HCC-2998 colon it was above 100 µM; in the assay on HOP-92 NSCLC it was 99 µM; in the assay with LOX IMVI melanoma, above 100 µM. The TGI in the assay on OVCAR-4 ovarian, in the assay with OVCAR-8 ovarian, in the assay on PC-3 prostate and in the assay with SR leukemia was above 100 µM in each case.
As to `COc1ccc2c(c1)[C@@]13CCN4CC5=CCO[C@H]6CC(=O)N2[C@H]1[C@H]6[C@H]5C[C@H]43`, the TGI with ACHN renal, in the assay with CAKI-1 renal, with EKVX NSCLC, in the assay with HCC-2998 colon, in the assay on HOP-92 NSCLC and in the assay on LOX IMVI melanoma was above 100 µM throughout. Also, the TGI in the assay on OVCAR-4 ovarian, in the assay with OVCAR-8 ovarian, with PC-3 prostate and in the assay on SR leukemia was above 100 µM throughout.
`C=CCOc1c(Br)cc(Br)cc1Br`: the GI50 in the assay with ACHN renal is 16.5 µM; with CAKI-1 renal it was 13 µM; in the assay on EKVX NSCLC, 10.3 µM; in the assay on HCC-2998 colon, 46.4 µM; with HOP-92 NSCLC, 35.6 µM; with LOX IMVI melanoma, 15.9 µM. The GI50 is 13.6 µM with OVCAR-4 ovarian, 28.2 µM in the assay on OVCAR-8 ovarian, 68 µM with PC-3 prostate and 4.84 µM in the assay on SR leukemia. Further, the TGI was above 100 µM in the assay on ACHN renal; 83.6 µM with CAKI-1 renal; above 100 µM in the assay with EKVX NSCLC; above 100 µM in the assay on HCC-2998 colon; above 100 µM with HOP-92 NSCLC; above 100 µM with LOX IMVI melanoma. For the same molecule, the TGI with OVCAR-4 ovarian is 39.9 µM; with OVCAR-8 ovarian, above 100 µM; with PC-3 prostate, above 100 µM; in the assay on SR leukemia, above 100 µM.
With `Clc1ccc(OCc2nnc3n2N=C(c2ccc(Cl)cc2Cl)CS3)c(Cl)c1`, the GI50 in the assay on ACHN renal was 20.5 µM; with CAKI-1 renal it was 26.6 µM; in the assay on EKVX NSCLC, 26.2 µM; in the assay with HCC-2998 colon, 20.3 µM; in the assay with HOP-92 NSCLC, 19.6 µM; with LOX IMVI melanoma it was 14.1 µM. Also, the GI50 is 28.1 µM in the assay with OVCAR-4 ovarian, 27.7 µM with OVCAR-8 ovarian, 29.5 µM in the assay with PC-3 prostate and 17.3 µM in the assay on SR leukemia. The TGI with ACHN renal is 49.9 µM; with CAKI-1 renal, 83 µM; in the assay with EKVX NSCLC, 74.1 µM; with HCC-2998 colon, 37.2 µM; with HOP-92 NSCLC, 89.2 µM; in the assay with LOX IMVI melanoma, 31 µM. Moreover, the TGI in the assay with OVCAR-4 ovarian was above 100 µM; with OVCAR-8 ovarian, 66.2 µM; with PC-3 prostate, above 100 µM; in the assay with SR leukemia, 46.5 µM.
As for `CCN(CCO)CCNc1ccc(C)c2sc3cc(Cl)ccc3c(=O)c12`, the GI50 in the assay on ACHN renal is 1.61 µM; in the assay on CAKI-1 renal, 1.72 µM; in the assay with EKVX NSCLC, 1.62 µM; in the assay with HCC-2998 colon it was 1.51 µM; in the assay with HOP-92 NSCLC, 1.56 µM; in the assay on LOX IMVI melanoma, 1.59 µM. For the same molecule, the GI50 with OVCAR-4 ovarian is 2.18 µM; with OVCAR-8 ovarian it was 1.78 µM; in the assay with PC-3 prostate it was 1.34 µM; with SR leukemia it was 0.751 µM. Also, the TGI in the assay with ACHN renal came out at 3.19 µM; in the assay on CAKI-1 renal, 4.03 µM; with EKVX NSCLC, 3.18 µM; in the assay on HCC-2998 colon it was 3.14 µM; with HOP-92 NSCLC, 8.94 µM; with LOX IMVI melanoma it was 3.06 µM. Moreover, the TGI was 5.15 µM with OVCAR-4 ovarian, 3.38 µM in the assay with OVCAR-8 ovarian, 2.94 µM in the assay with PC-3 prostate and 2.78 µM with SR leukemia.
In the case of `CC(C)(C)c1nc2c(o1)C(=Nc1ccc(F)cc1)c1ccccc1C2=O`, the TGI in the assay with ACHN renal is 32.1 µM; in the assay with CAKI-1 renal, above 100 µM; in the assay on EKVX NSCLC, above 83.5 µM; with HCC-2998 colon, 20.5 µM; with HOP-92 NSCLC, above 97.7 µM; in the assay with LOX IMVI melanoma, 13 µM. Also, the TGI was above 100 µM with OVCAR-4 ovarian, above 61.2 µM in the assay with OVCAR-8 ovarian, above 100 µM in the assay with PC-3 prostate and above 100 µM with SR leukemia.
With `NCCN1CCN(c2nccc(-c3ccc4ccccc4c3)n2)CC1`, the GI50 is 1.71 µM with ACHN renal; 1.55 µM in the assay on CAKI-1 renal; 1.83 µM with EKVX NSCLC; 1.74 µM with HCC-2998 colon; 1.61 µM in the assay with HOP-92 NSCLC; 1.76 µM in the assay on LOX IMVI melanoma. Further, the GI50 is 2.41 µM in the assay on OVCAR-4 ovarian, 2.25 µM in the assay with OVCAR-8 ovarian, 1.86 µM with PC-3 prostate and 1.87 µM in the assay on SR leukemia. The TGI was 3.29 µM in the assay with ACHN renal; 2.95 µM in the assay with CAKI-1 renal; 4.08 µM in the assay with EKVX NSCLC; 3.46 µM in the assay on HCC-2998 colon; 4.01 µM in the assay with HOP-92 NSCLC; 3.31 µM in the assay on LOX IMVI melanoma. Moreover, the TGI in the assay with OVCAR-4 ovarian worked out at 7.5 µM; with OVCAR-8 ovarian, 5.6 µM; with PC-3 prostate it was 4.36 µM; in the assay on SR leukemia, 6.11 µM.
For `Cc1ncc(NC(=O)c2ccc(CN3CCN(C)CC3)c(C(F)(F)F)c2)cc1Nc1nccc(-c2cccnc2)n1`, the GI50 in the assay on ACHN renal was 14.2 µM; in the assay with CAKI-1 renal, 13.7 µM; with EKVX NSCLC, 17.4 µM; in the assay with HCC-2998 colon, 13.4 µM; in the assay on HOP-92 NSCLC it was 4.5 µM; in the assay with LOX IMVI melanoma, 1.64 µM. For the same molecule, the GI50 is 15.5 µM in the assay with OVCAR-4 ovarian, 16.8 µM with OVCAR-8 ovarian, 16.9 µM with PC-3 prostate and 2.9 µM with SR leukemia. The TGI was 27.3 µM with ACHN renal; 26.7 µM with CAKI-1 renal; 31.4 µM in the assay with EKVX NSCLC; 26.6 µM in the assay with HCC-2998 colon; 21 µM in the assay on HOP-92 NSCLC; 3.18 µM with LOX IMVI melanoma. Moreover, the TGI in the assay on OVCAR-4 ovarian was determined as 29.4 µM; with OVCAR-8 ovarian it was 31.6 µM; in the assay with PC-3 prostate, 32.9 µM; in the assay with SR leukemia it was 47.8 µM.
`Cc1c(C(=O)NN)nnn1-c1ccnc2c(C(F)(F)F)cccc12`: the GI50 with ACHN renal, with CAKI-1 renal, with EKVX NSCLC, with HCC-2998 colon, in the assay on HOP-92 NSCLC and in the assay with LOX IMVI melanoma was above 100 µM in each case. Moreover, the GI50 in the assay on OVCAR-4 ovarian is 12 µM; with OVCAR-8 ovarian it was above 100 µM; with PC-3 prostate, above 100 µM; with SR leukemia, above 100 µM. The TGI in the assay with ACHN renal, with CAKI-1 renal, in the assay on EKVX NSCLC, with HCC-2998 colon, in the assay with HOP-92 NSCLC and with LOX IMVI melanoma was above 100 µM each time. In addition, the TGI with OVCAR-4 ovarian is 89.4 µM; with OVCAR-8 ovarian, above 100 µM; with PC-3 prostate, above 100 µM; with SR leukemia it was above 100 µM.

Values taken from PubChem BioAssay (NCI).
